# Data: ChEMBL document CHEMBL1201862, “PubChem BioAssay data set” (2004)
# Calls of active or inactive are those of the source. Cut-off read from the data, not from the text of the source, for most assays here: actives have a measured EC50 and inactives only a lower limit.
# Tests used:
# [1] = target: T1, RNA-binding protein pos-1 (Caenorhabditis elegans, UniProt G5EF15); assay: inhibitors of POS-1/mex-3 RNA binding, dose response, biochemical, fluorescence polarization (AID 1964);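 note: purified POS-1 fused to maltose binding protein made in E. coli; potency of compounds blocking POS-1 binding to fluorescent RNA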
# T1 sequence (G5EF15 whole entry): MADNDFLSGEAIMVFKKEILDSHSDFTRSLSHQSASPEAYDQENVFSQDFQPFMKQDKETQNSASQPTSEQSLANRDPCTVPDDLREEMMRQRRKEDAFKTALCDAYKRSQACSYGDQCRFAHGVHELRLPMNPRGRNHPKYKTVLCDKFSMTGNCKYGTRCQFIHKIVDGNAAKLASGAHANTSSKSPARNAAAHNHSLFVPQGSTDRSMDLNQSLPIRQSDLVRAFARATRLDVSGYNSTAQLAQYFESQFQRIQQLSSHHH
# [2] = target: T2, Zinc finger protein mex-5 (Caenorhabditis elegans, UniProt Q9XUB2); assay: MEX-5/TCR-2 RNA interaction inhibitors, dose response, biochemical, C. elegans, fluorescence polarization (AID 1960)
# T2 sequence (Q9XUB2 whole entry): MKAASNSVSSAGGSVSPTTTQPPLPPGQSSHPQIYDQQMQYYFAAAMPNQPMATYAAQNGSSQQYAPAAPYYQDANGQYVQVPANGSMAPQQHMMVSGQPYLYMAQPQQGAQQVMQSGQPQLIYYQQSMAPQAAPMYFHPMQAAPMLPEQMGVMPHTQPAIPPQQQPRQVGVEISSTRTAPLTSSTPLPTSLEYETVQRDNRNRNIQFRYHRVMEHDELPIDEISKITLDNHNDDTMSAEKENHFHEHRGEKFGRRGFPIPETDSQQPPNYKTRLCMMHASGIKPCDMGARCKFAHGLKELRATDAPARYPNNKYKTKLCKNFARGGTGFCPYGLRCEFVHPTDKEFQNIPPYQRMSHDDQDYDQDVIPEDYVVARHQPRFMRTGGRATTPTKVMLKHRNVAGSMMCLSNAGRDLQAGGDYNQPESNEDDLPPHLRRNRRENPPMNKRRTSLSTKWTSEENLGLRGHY
# [3] = target: T3, Corticotropin-releasing factor receptor 2/Corticotropin-releasing factor-binding protein (Homo sapiens, UniProt P24387+Q13324); assay: Dose Response confirmation of uHTS hits for small molecule antagonists of the CRF-binding protein and CRF-R2 receptor complex.; type: functional; details: read-out: IC50_Mean
# T3 sequence (Q13324 whole entry): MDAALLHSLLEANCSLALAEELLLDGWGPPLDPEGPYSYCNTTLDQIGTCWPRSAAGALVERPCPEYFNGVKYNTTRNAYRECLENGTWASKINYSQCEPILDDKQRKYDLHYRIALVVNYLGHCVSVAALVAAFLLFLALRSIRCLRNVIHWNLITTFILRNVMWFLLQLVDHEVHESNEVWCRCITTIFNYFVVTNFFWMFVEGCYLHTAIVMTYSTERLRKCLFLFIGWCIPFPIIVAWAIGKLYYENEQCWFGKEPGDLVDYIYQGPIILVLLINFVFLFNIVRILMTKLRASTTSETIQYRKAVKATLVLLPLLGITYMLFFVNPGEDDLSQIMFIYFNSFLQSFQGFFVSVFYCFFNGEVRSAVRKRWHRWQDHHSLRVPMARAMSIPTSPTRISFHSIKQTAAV
# T3 sequence (P24387 whole entry): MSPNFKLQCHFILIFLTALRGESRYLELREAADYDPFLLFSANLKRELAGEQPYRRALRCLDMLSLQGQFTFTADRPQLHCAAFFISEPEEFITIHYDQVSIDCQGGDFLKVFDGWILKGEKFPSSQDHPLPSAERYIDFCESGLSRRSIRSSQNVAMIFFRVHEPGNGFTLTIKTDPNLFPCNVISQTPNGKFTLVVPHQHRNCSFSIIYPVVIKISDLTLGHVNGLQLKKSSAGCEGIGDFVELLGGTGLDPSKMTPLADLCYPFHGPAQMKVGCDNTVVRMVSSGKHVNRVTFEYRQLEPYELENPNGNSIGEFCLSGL
# [4] = target: T3, Corticotropin-releasing factor receptor 2/Corticotropin-releasing factor-binding protein; assay: activators of CRF receptor 2 with binding protein – uHTS hits, confirmation (AID 602473); type: functional; details: read-out: EC50_Mean
# [5] = target: T4, Ubiquitin-conjugating enzyme E2 N (Homo sapiens, UniProt P61088); type: functional;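 note: Dose-response confirmation in a TR-FRET assay detecting UBC13-driven polyubiquitin chain formation, inhibition measured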
# T4 sequence (P61088 whole entry): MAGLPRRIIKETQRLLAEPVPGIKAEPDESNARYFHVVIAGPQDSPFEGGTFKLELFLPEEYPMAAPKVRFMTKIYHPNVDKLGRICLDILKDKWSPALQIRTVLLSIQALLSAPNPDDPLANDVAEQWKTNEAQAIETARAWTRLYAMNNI
# [6] = NIH-3T3 fibroblast cytotoxicity, dose response, cytotoxicity control, cell-based, fluorescence, Alamar Blue, secondary assay (AID 2327); type: functional;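 note: NIH-3T3 mouse fibroblasts cultured with fluconazole at 8 µg/mL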
# [7] = C. albicans growth with fluconazole, confirmation, fluorescence, retest (AID 2467); type: functional, cell-based
# [8] = target: T5, Replicative DNA helicase DnaB (Mycobacterium tuberculosis, UniProt P9WMR3); assay: DnaB intein splicing inhibitors, dose response, biochemical, cell-free fluorescence (AID 449749); type: functional
# T5 sequence (P9WMR3 whole entry): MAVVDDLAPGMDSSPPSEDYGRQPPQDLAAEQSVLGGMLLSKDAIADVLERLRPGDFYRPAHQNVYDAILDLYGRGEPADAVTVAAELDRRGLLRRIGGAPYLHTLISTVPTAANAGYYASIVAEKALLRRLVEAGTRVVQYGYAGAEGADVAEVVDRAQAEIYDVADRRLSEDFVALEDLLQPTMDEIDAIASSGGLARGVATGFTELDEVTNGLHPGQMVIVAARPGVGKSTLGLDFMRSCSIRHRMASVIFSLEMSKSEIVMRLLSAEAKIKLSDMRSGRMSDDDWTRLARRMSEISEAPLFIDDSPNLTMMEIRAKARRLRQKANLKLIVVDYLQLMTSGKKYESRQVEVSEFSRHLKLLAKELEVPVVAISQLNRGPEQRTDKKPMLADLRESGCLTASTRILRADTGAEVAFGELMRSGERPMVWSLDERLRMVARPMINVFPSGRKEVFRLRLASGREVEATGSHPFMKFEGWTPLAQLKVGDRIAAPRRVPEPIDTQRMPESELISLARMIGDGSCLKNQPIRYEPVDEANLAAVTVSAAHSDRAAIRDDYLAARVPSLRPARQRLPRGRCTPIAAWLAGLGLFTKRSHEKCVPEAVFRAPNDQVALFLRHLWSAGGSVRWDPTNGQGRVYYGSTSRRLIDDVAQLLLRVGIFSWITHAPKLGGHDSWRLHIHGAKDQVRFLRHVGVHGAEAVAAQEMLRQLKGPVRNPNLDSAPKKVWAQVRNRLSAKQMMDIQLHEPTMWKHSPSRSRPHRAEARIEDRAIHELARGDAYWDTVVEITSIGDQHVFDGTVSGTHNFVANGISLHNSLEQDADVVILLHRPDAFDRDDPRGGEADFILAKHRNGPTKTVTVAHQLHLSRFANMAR
# [9] = target: Heat shock protein HSP 90-alpha (Homo sapiens, UniProt P07900); type: functional, organism-based
# [10] = target: T6, Protein RecA (Mycobacterium tuberculosis, UniProt P9WHJ3); assay: Fluorescence Cell-Free Homogeneous Dose Retest to Identify Inhibitors of RecA-Intein Splicing Activity. [Related pubchem assays (depositor defined):AID2097, AID2223, AID489010, AID492950]; type: functional
# T6 sequence (P9WHJ3 whole entry): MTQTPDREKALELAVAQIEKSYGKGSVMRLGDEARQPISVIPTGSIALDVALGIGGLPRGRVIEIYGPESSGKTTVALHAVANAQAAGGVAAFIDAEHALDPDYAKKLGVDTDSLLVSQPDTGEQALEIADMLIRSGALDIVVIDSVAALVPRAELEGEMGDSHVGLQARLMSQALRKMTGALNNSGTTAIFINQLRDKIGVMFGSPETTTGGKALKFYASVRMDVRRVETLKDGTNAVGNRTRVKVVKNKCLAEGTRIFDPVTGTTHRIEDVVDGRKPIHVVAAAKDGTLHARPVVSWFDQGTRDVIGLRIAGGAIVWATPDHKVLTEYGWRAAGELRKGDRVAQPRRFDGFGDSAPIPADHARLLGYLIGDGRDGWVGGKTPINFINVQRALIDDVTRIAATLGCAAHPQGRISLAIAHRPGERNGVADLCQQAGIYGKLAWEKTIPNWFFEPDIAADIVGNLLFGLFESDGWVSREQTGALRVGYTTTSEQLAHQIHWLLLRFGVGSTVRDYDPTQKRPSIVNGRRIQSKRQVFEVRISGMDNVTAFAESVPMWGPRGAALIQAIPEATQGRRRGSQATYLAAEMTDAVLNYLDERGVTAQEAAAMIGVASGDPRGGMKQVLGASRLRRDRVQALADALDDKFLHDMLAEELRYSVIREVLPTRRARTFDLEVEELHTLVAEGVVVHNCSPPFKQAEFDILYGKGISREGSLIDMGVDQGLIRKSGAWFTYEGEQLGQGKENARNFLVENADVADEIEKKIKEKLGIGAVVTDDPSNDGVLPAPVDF
# [11] = Shn3 3'UTR reporter inhibitors, dose response, cell-based, Clone20 osteoblasts, firefly luciferase, cherry-picked (AID 624132); type: functional;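 note: firefly luciferase luminescence from reporter carrying the Shn3 3'UTR in osteoblasts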
# [12] = HepG2 cell cytotoxicity, dose response, cytotoxicity control for Shn3 inhibitor project, CellTiter-Glo, cherry-picked (AID 624134); type: functional, cell-based
# [13] = control 3'UTR Renilla luciferase suppression, dose response, counter-screen for Shn3 inhibitor project, cell-based, Clone20-Shn3RL, cherry-picked (AID 624133); type: functional
# [14] = test system: Streptococcus sp. 'group A'; assay: growth inhibition of control SK(-) GAS strain, dose response, counter-screen for streptokinase expression inhibitor project, luminescence, kanamycin, BacTiterGlo, confirmation (AID 1900); type: functional, organism-based
# [15] = target: T7, Streptokinase A (Streptococcus pyogenes serotype M1, UniProt P10520); assay: S. pyogenes streptokinase expression inhibitors, potency, dose response, plasminogen activation absorbance, OD405 (AID 1914); type: functional, Streptococcus pyogenes M1 GAS;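 note: secreted streptokinase activity via plasminogen activation per viability signal from cell pellet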
# T7 sequence (P10520 whole entry): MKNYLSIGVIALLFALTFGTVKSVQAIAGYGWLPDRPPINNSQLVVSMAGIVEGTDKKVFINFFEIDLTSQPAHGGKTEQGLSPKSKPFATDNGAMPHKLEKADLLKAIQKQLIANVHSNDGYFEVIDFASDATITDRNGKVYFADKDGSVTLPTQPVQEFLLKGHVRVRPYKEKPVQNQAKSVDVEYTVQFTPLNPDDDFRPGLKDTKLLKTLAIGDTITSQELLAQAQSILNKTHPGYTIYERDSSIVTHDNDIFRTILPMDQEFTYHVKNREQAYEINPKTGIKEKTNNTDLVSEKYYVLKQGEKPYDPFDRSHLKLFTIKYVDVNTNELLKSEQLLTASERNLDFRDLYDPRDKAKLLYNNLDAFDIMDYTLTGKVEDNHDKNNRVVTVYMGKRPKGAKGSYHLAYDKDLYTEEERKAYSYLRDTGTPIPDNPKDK
# [16] = test system: Streptococcus; assay: Group A Streptococcus viability loss, dose response, counter-screen for streptokinase expression inhibitor project, luminescence, BacTiterGlo (AID 1915); type: functional, organism-based;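 note: potency for reduction of bacterial viability or growth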
# [17] = Luminescence Cell-Based Dose Retest to Confirm Inhibitors of Cancer Stem Cells. [Related pubchem assays (depositor defined):AID2717, AID2721]; type: functional, Homo sapiens
smiles,measurement,setting,value
CN(C)c1ccc(-c2nnc(-c3ccc(S(=O)(=O)C(F)F)cc3)o2)cc1,EC50,[1],55.7 µM (inconclusive)
same,EC50,[2],31.4 µM (inconclusive)
Cc1ccc(-n2c(Cl)c(Cl)[nH]c(=O)c2=O)cc1,IC50,[3],> 47.1 µM (inactive)
same,EC50,[4],> 53 µM (inactive)
O=C1/C(=C/c2cccc([N+](=O)[O-])c2)CSc2ccc(Cl)cc21,IC50,[5],> 20 µM (inactive)
CN1CCN(C(c2ccc(Br)cc2)c2cc(Cl)c3cccnc3c2O)CC1 (configuration not stated),EC50,[6],4.78 µM (inconclusive)
same,EC50,[7],0.492 µM (active)
same,AC50,[8],14.3 µM (active)
same,AC50,[9],0.609 µM (active)
same,EC50,[10],3.22 µM (active)
same,AC50,[11],3.61 µM (active)
same,AC50,[12],34.9 µM (active)
same,AC50,[13],6.28 µM (active)
COc1ccc(OCC(=O)NNC(=S)NC(=O)c2ccc([N+](=O)[O-])cc2)cc1,IC50,[5],> 20 µM (inactive)
CCc1nnc(N=C(S)Nc2ccccc2)s1,IC50,[3],> 47.1 µM (inactive)
same,EC50,[4],> 53 µM (inactive)
O=C(C[n+]1nc(CNc2ccc(Br)cc2)n2c1CCCCC2)c1ccc([N+](=O)[O-])cc1,IC50,[5],> 20 µM (inactive)
C#CCOCCOCCOCCNc1nc(N2CCN(C(=O)[C@H]([C@@H](C)CC)n3cc(CCCN=C(N)N)nn3)CC2)nc(N2CCN(C(=O)[C@H](CCCCN)n3cc(CCCC)nn3)CC2)n1,IC50,[5],> 20 µM (inactive)
COc1cc(Cl)c(C)cc1NC(=O)CSc1ccc(C)cc1,IC50,[3],> 47.1 µM (inactive)
same,EC50,[4],> 53 µM (inactive)
C=CCOn1c(=O)c(-c2cc3ccccc3o2)[n+]([O-])c2ccccc21,EC50,[1],28.3 µM (inconclusive)
same,EC50,[2],69.7 µM (inconclusive)
CC1CCN(c2nc3ccccc3nc2C(C#N)C(=O)NC2CCCCC2)CC1 (configuration not stated),EC50,[1],> 300 µM (not active)
same,EC50,[14]; read-out: EC50,7.52 µM (active)
same,EC50,[2],> 300 µM (not active)
same,EC50,[15],26.2 µM (active)
same,EC50,[16],18.3 µM (active)
Cc1c(CN2CCCCC2)c(O)n(CCCO)c(=O)c1C#N,EC50,[1],> 300 µM (not active)
same,EC50,[2],> 300 µM (not active)
C=CCNC(S)=NNC(=O)c1ccc(OCC)cc1,IC50,[3],> 47.1 µM (inactive)
same,EC50,[4],> 53 µM (inactive)
CC1CCCN(CCCNC(=O)CN2C(=O)CSc3ccc(S(=O)(=O)N4CCOCC4)cc32)C1 (configuration not stated),IC50,[3],> 47.1 µM (inactive)
same,EC50,[4],> 53 µM (inactive)
CC(NC(=O)COC(=O)C1(C)CC1(Cl)Cl)c1ccccc1 (configuration not stated),IC50,[3],> 47.1 µM (inactive)
same,EC50,[4],> 53 µM (inactive)
CCOC(=O)/C=c1\s/c(=C\c2ccc(C#N)cc2)c(=O)n1CC(=O)NCc1ccco1,EC50,[1],> 300 µM (not active)
same,EC50,[2],> 300 µM (not active)
CC/C(=C(\c1ccccc1)c1ccc(OCCN(C)C)cc1)c1ccccc1 [TAMOXIFEN],EC50,[14],6.5 µM (active)
same,EC50,[15],> 150 µM (not active)
same,EC50,[16],21.8 µM (active)
same,AC50,[17],5.52 µM (active)
same,IC50,[5],> 20 µM (inactive)
